Measured values as given in the supplement of paper PMC7023306.
± gives the uncertainty stated by the source.

Experiment: TIMS collision cross section in N2 (TIMS CCS N2); higher = larger gas-phase ion size
Settings: drift gas: N2 (99.4% N2, 0.6% O2), calibration: Stow et al. 2017 values for Agilent ESI-L Low Concentration Tune Mix, ionization: negative ESI
Description: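 Authentic plant natural product standards (10-50 ppm in 80% methanol) were analysed by UHPLC (BEH C18, 60 °C) coupled to a Bruker timsTOF Pro in negative ESI with N2 drift gas. TIMS collision cross sections were computed from mobility peak apices after calibration with Agilent Tune Mix using Stow et al. reference values. Values are the average of triplicate runs on different days, reported per annotated ion species (deprotonated ion, adducts, dimer, oxidized ion).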

SMILES	TIMS collision cross section in N2 (ion species: [M-H]-)	further results
COc1ccc2c(=O)cc(-c3ccc(O)cc3)oc2c1 [7-Methoxy-4'-hydroxyflavone]	164.31 ± 0.31 Å²	TIMS collision cross section in N2 (ion species: [2M-H]-): 257.82 ± 0.34 Å²
COc1ccc2c(c1)OC(c1ccccc1)CC2=O (stereo not drawn) [7-Methoxyflavanone]	163.71 ± 0.025 Å²	
COc1ccc(-c2cc3ccc(O)cc3oc2=O)cc1 [7-hydroxy 3(4- methoxyphenyl) coumarin]	162.79 ± 0.25 Å²	
COc1ccc(O)c2c1C(=O)CC(c1ccccc1)O2 (stereo not drawn) [8-Hydroxy-5-methoxyflavanone]	165.83 ± 0.053 Å²	
CC(C)=CCc1c(O)cc(O)c2c1O[C@H](c1ccc(O)cc1)CC2=O [8-prenylnaringenin]	183.54 ± 0.32 Å²	
O=c1cc(-c2ccc(O)cc2)oc2cc(OC3O[C@H](CO)[C@@H](O)[C@H](O)[C@H]3O)cc(O)c12 (stereo partly drawn) [Apigenin-7-O-glucoside (apigetrin)]	206.74 ± 0.14 Å²	TIMS collision cross section in N2 (ion species: [M-H+Na+HCO2H]-): 228.65 ± 0.32 Å²
O=c1cc(-c2ccc(O)cc2)oc2cc(O)cc(O)c12 [Apigenin]	157.47 ± 0.15 Å²	TIMS collision cross section in N2 (ion species: [2M-H]-): 238.72 ± 0.12 Å²
COc1cc2oc(-c3ccc(O)cc3O)c(CC=C(C)C)c(=O)c2c(O)c1/C=C/C(C)C [Artocarpin]	218.58 ± 0.23 Å²	TIMS collision cross section in N2 (ion species: [M-H+Na+HCO2H]-): 229.53 ± 0.64 Å²
C[C@H]1[C@H](C)CC[C@]2(C(=O)O)CC[C@]3(C)C(=CC[C@@H]4[C@@]5(C)C[C@@H](O)[C@H](O)[C@@](C)(CO)[C@@H]5CC[C@]43C)[C@H]12 [Asiatic acid]	222.65 ± 0.35 Å²	
O=C(CCc1ccc(O)c(O)c1)c1c(O)cc(O)c([C@@H]2O[C@H](CO)[C@@H](O)[C@H](O)[C@H]2O)c1O [Aspalathin]	194.21 ± 0.22 Å²	TIMS collision cross section in N2 (ion species: [2M-H]-): 274.03 ± 0.72 Å²; TIMS collision cross section in N2 (ion species: [M-3H]-): 195.17 ± 0.1 Å²
O=c1cc(-c2ccccc2)oc2cc(O)c(O)c(O)c12 [Baicalein]		TIMS collision cross section in N2 (ion species: [M-3H]-): 158.42 ± 0.15 Å²
COc1ccc(-c2coc3cc(O)cc(O)c3c2=O)cc1 [Biochanin A (5,7-Dihydroxy-4'-methoxyisoflavone)]	166.11 ± 0.071 Å²	TIMS collision cross section in N2 (ion species: [2M-H]-): 261.04 ± 0.32 Å²
CC1(C)CC[C@]2(C)CC[C@]3(C)C(=CC[C@@H]4[C@@]5(C)CC[C@@H](O)[C@](C)(C(=O)O)[C@@H]5CC[C@]43C)[C@@H]2C1 [Boswellic acid, alpha-]	222.31 ± 0.39 Å²	TIMS collision cross section in N2 (ion species: [M-H+Na+HCO2H]-): 239.79 ± 0.21 Å²
Oc1cc(O)c2c(c1)O[C@@H](c1ccc(O)c(O)c1)[C@H](O)C2 [Catechin]	156.67 ± 0.19 Å²	
CC1(C)CC[C@]2(C(=O)O)CC[C@]3(C)C(=CC[C@@H]4[C@@]5(C)CC[C@H](O[C@@H]6OC[C@H](O)[C@H](O)[C@H]6O[C@@H]6O[C@H](CO)[C@@H](O)[C@H](O)[C@H]6O)[C@@](C)(CO)[C@@H]5CC[C@]43C)[C@@H]2C1 [Cauloside C]		TIMS collision cross section in N2 (ion species: [M-H+HCO2H]-): 289.87 ± 0.76 Å²
O=C(/C=C/c1ccc(O)c(O)c1)O[C@@H]1C[C@](O)(C(=O)O)C[C@@H](O)[C@H]1O [Chlorogenic acid]		TIMS collision cross section in N2 (ion species: [M-3H]-): 187.02 ± 0.44 Å²
O=c1cc(-c2ccccc2)oc2cc(O)cc(O)c12 [Chrysin]	156.14 ± 0.1 Å²	TIMS collision cross section in N2 (ion species: [2M-H]-): 230.51 ± 0.25 Å²
CC(C)=CCC1=C(O)C(O)(CC=C(C)C)C(=O)C(C(=O)C(C)C)=C1O (stereo not drawn) [Cohumulone]	184.13 ± 0.17 Å²	
C[C@H]1[C@H](C)CC[C@]2(C(=O)O)CC[C@]3(C)C(=CC[C@@H]4[C@@]5(C)C[C@@H](O)[C@H](O)C(C)(C)[C@@H]5CC[C@]43C)[C@H]12 [Corosolic acid]	220.34 ± 0.4 Å²	TIMS collision cross section in N2 (ion species: [M-H+Na+HCO2H]-): 231.55 ± 0.4 Å²
COc1cc(O)c2c(=O)cc(-c3cc(OC)c(OC)c(OC)c3)oc2c1 [Corymbosin]	190.83 ± 0.34 Å²	
O=c1oc2cc(O)ccc2c2oc3cc(O)ccc3c12 [Coumestrol]	155.75 ± 0.042 Å²	TIMS collision cross section in N2 (ion species: [2M-H]-): 245.05 ± 0.43 Å²

SMILES	TIMS collision cross section in N2 (ion species: [M-H]-)	further results
O=c1c(-c2ccc(O)cc2)coc2cc(O)ccc12 [Daidzein]	157.59 ± 0.0071 Å²	TIMS collision cross section in N2 (ion species: [2M-H]-): 246.33 ± 0.2 Å²
Oc1ccc2c(c1)O[C@H]1c3ccc(O)cc3OC[C@@H]21 [Demethyl medicarpin]	161.89 ± 0.17 Å²	
CC(C)=CCc1c(O)cc(O)c(C(=O)/C=C/c2ccc(O)cc2)c1O [Desmethylxanthohumol]	183.45 ± 0.15 Å²	
O=C1c2c(O)cc(O)cc2O[C@H](c2ccc(O)cc2)[C@H]1O [Dihydrokaempferol]	164.03 ± 0.16 Å²	TIMS collision cross section in N2 (ion species: [2M-H]-): 248.74 ± 0.038 Å²; TIMS collision cross section in N2 (ion species: [M-H+Na+HCO2H]-): 186.44 ± 0.2 Å²
COc1ccc(-c2cc(=O)c3c(O)cc(O)cc3o2)cc1O [Diosmetin]	171.28 ± 0.2 Å²	
COc1ccc(-c2cc(=O)c3c(O)cc(O[C@@H]4O[C@H](CO[C@@H]5O[C@@H](C)[C@H](O)[C@@H](O)[C@H]5O)[C@@H](O)[C@H](O)[C@H]4O)cc3o2)cc1O [Diosmin]	233.82 ± 0.23 Å²	TIMS collision cross section in N2 (ion species: [M-H+Na+HCO2H]-): 247.05 ± 0.28 Å²
O=C1C[C@@H](c2ccc(O)c(O)c2)Oc2cc(O)cc(O)c21 [Eriodictyol]	165.97 ± 0.11 Å²	
COc1ccc(-c2cc(=O)c3c(O)c(OC)c(O)cc3o2)cc1OC [Eupatilin]	185.44 ± 0.18 Å²	TIMS collision cross section in N2 (ion species: [M-H+Na+HCO2H]-): 201.78 ± 0.15 Å²
Cc1c(O)c(C)c2c(c1O)C(=O)C[C@@H](c1ccc(O)cc1)O2 [Farrerol]	172.28 ± 0.21 Å²	TIMS collision cross section in N2 (ion species: [M-H+Na+HCO2H]-): 186.6 ± 0.36 Å²
O=c1c(O)c(-c2ccc(O)c(O)c2)oc2cc(O)ccc12 [Fisetin]	162.38 ± 0.017 Å²	TIMS collision cross section in N2 (ion species: [M-3H]-): 157.48 ± 0.065 Å²
COc1ccc(-c2coc3cc(O)ccc3c2=O)cc1 [Formononetin]	163.76 ± 0.32 Å²	TIMS collision cross section in N2 (ion species: [2M-H]-): 257.46 ± 0.31 Å²
O=c1c(-c2ccc(O)cc2)coc2cc(O)cc(O)c12 [Genistein]	159.89 ± 0.26 Å²	TIMS collision cross section in N2 (ion species: [2M-H]-): 249.93 ± 0.16 Å²
O=c1c(-c2ccc(O)cc2)coc2cc(O[C@@H]3O[C@H](CO)[C@@H](O)[C@H](O)[C@H]3O)cc(O)c12 [Genistin]	212.14 ± 0.076 Å²	TIMS collision cross section in N2 (ion species: [M-H+HCO2H]-): 220.37 ± 0.15 Å²
COc1cc2c(=O)c(-c3ccc(O)cc3)coc2cc1O [Glycitein]	166.87 ± 0.13 Å²	TIMS collision cross section in N2 (ion species: [M-H+Na+HCO2H]-): 184.69 ± 0.23 Å²
CC1(C)[C@@H](O[C@H]2O[C@H](C(=O)O)[C@@H](O)[C@H](O)[C@H]2O[C@@H]2O[C@H](C(=O)O)[C@@H](O)[C@H](O)[C@H]2O)CC[C@]2(C)[C@H]3C(=O)C=C4[C@@H]5C[C@@](C)(C(=O)O)CC[C@]5(C)CC[C@@]4(C)[C@]3(C)CC[C@@H]12 [Glycyrrhizic acid]	279.43 ± 0.38 Å²	
CC1(C)CC[C@]2(C(=O)O)CC[C@]3(C)C(=CC[C@@H]4[C@@]5(C)CC[C@H](O)[C@@](C)(CO)[C@@H]5CC[C@]43C)[C@@H]2C1 [Hederagenin]	222.47 ± 0.52 Å²	TIMS collision cross section in N2 (ion species: [M-H+Na+HCO2H]-): 234.04 ± 0.57 Å²
CCCCCCCCCCCCCCCCC(=O)O [Heptadecanoic acid]	174.45 ± 0.021 Å²	TIMS collision cross section in N2 (ion species: [2M-H]-): 259.04 ± 0.54 Å²
COc1ccc([C@@H]2CC(=O)c3c(O)cc(O)cc3O2)cc1O [Hesperetin]	172.79 ± 0.23 Å²	TIMS collision cross section in N2 (ion species: [2M-H]-): 219.76 ± 0.28 Å²
COc1c(O)cc2oc(-c3ccc(O)cc3)cc(=O)c2c1O [Hispidulin]	165.52 ± 0.17 Å²	
COc1cc([C@@H]2CC(=O)c3c(O)cc(O)cc3O2)ccc1O [Homoeriodictyol]	168.62 ± 0.075 Å²	TIMS collision cross section in N2 (ion species: [M-H+Na+HCO2H]-): 188.05 ± 0.04 Å²
CC(C)=CCC1C(=O)C(C(=O)CC(C)C)=C(O)C(O)(CC=C(C)C)C1=O (stereo not drawn) [Humulone]	188.57 ± 0.35 Å²	
